# Measured values as given in article PMC6629613, “Selective and competitive inhibition of kynurenine aminotransferase 2 by glycyrrhizic acid and its analogues” (Scientific Reports, 2019).
# Read-outs that look alike come from different tables or passages of the source.
# Legend:
# human KAT2 [1] = target: T1, human KAT2 (Homo sapiens, UniProt Q8N5Z0); assay: Human KAT2 enzyme inhibition, microplate fluorescence assay of KYNA; type: biochemical
# T1 construct: made in house; host or cells: insect Sf9 cells (baculovirus)
# T1 sequence (Q8N5Z0 30-425): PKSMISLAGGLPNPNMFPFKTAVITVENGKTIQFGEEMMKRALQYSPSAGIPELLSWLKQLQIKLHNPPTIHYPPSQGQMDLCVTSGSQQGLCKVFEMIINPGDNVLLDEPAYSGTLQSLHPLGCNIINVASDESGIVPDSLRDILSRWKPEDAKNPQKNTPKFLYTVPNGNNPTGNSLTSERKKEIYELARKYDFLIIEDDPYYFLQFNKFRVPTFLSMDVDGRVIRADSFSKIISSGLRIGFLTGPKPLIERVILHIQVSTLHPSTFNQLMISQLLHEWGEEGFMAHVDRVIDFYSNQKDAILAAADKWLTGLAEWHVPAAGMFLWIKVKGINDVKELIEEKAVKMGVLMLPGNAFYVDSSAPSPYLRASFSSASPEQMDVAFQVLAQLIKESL
# Protocol: High-throughput screening assays for inhibitors of human KAT2 were conducted using a microplate fluorescence assay for kynurenine aminotransferase[26] with minor modifications. In these assays, KAT2 enzyme activities were measured in black 384-well untreated plates. The human KAT2 reaction mixture (20 μL) contained 10 ng/μL recombinant human KAT2, 1 mM L-KYN, 1 mM α-ketoglutaric acid, […], 0.005% Tween 20 and 150 mM AMP buffer (pH 9.5), and was added to 384-well plates containing compounds using a Multidrop dispenser (Thermo Fisher Scientific, USA). The compound library comprised about 13,000 compounds from the Drug Discovery Initiative at the University of Tokyo. The compound library includes about 9,600 diverse compounds for pilot screening and about 3,400 known bioactive compounds. All compounds were dissolved and diluted in DMSO to a final concentration of 10 μM. Reaction mixtures were incubated for 2 h at room temperature, and 20 μL aliquots of 300 mM zinc acetate (pH 5.5) were then added directly using a Multidrop dispenser. Fluorescence intensities of KYNA were measured using an ARVO X Multi Label Reader (PerkinElmer, USA) at an excitation wavelength of 340 nm and an emission wavelength of 460 nm. Assay quality was validated by calculating signal–background and Z’ factor. These assays identified approximately 20 candidate KAT2 inhibitors with potent inhibitory activity from about 13,000 compounds. Candidate compounds were validated in quadruplicate KAT2 enzyme activity assays.
# Inhibitory activities of the identified compounds against KAT1 and KAT2 were measured using the enzyme activity assays described above. KAT1 reaction mixtures (20 μL) contained 10 ng/μL recombinant human KAT1, 1 mM L-KYN, 1 mM sodium pyruvate, 100 μM PLP, 0.005% Tween 20 and inhibitors at various concentrations in 150 mM 2-amino-2-methyl-1-propanol (AMP) buffer (pH 7.4 or 9.5). […] Following the addition of 20 μL aliquots of 300 mM zinc acetate, fluorescence intensities of KYNA were measured using an ARVO X Multi Label Reader (PerkinElmer, USA).
# (§1) To determine steady state kinetic parameters for the substrate L-KYN, 50 μL reaction mixtures containing 10 ng/μL recombinant human KAT2, 1 mM α-KG, 100 μM PLP, 0.005% Tween 20, L-KYN at concentrations of 10, 5, 2.5, 1.25, 0.62, 0.31 and 0.15 mM and GL, GA or CBX or PF-04859989 at 4.5, 6.0 and 3.5 μM and 300 nM, respectively. Following incubation for 30 min at 37 °C, reactions were stopped by adding 3% perchloric acid at a 1:1 ratio. KYNA concentrations were measured using the same HPLC method as described above. Double reciprocal plots were used to determine types of inhibition. Competitive inhibition constants (Ki) for GL, GA and CBX were calculated using the global fit formula (GraphPad Prism v6.07)[60],[61] as follows: v=Vmax∗[S]/(Kmobs+[S])andKmobs=Km×(1+[I]/Ki), where v = initial velocity, Vmax = maximum velocity, [S] = substrate concentration, Km = Michaelis–Menten constant and [I] = inhibitor concentration. The Ki value of PF-04859989 was calculated using the global fit formula as follows: Vmaxinh=Vmax/(1+[I]/Ki)andKmobs=Vmaxinh×[S]/(Km+[S]), where Vmaxinh = maximum enzyme velocity for the concentration of inhibitor. IC50 values were determined by nonlinear curve fitting using GraphPad Prism v6.07. All statistical analyses were performed using GraphPad Prism v6.07.
# human KAT1 = target: T2, human KAT1 (Homo sapiens, UniProt Q16773); assay: Human KAT1 enzyme inhibition, microplate fluorescence assay of KYNA; type: biochemical; conditions: recombinant human KAT1, 1 mM L-KYN, 1 mM sodium pyruvate
# T2 construct: made in house; host or cells: insect Sf9 cells (baculovirus)
# T2 sequence (Q16773 1-422): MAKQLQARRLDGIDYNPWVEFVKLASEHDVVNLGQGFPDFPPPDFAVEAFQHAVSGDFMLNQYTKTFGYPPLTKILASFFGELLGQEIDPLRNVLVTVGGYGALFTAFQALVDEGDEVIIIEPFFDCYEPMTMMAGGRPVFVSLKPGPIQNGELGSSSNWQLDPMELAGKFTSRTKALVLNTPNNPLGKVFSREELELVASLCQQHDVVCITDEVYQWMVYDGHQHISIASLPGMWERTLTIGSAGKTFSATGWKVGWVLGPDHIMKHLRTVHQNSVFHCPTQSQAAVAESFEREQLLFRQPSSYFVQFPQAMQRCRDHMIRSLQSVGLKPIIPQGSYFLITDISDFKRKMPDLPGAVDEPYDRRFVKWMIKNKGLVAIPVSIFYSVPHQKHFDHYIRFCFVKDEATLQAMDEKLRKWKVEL
# Protocol: (§2) Inhibitory activities of the identified compounds against KAT1 and KAT2 were measured using the enzyme activity assays described above. KAT1 reaction mixtures (20 μL) contained 10 ng/μL recombinant human KAT1, 1 mM L-KYN, 1 mM sodium pyruvate, 100 μM PLP, 0.005% Tween 20 and inhibitors at various concentrations in 150 mM 2-amino-2-methyl-1-propanol (AMP) buffer (pH 7.4 or 9.5). Human and mouse KAT2 reaction mixtures (20 μL) contained 10 ng/μL recombinant human or mouse KAT2, 1 mM L-KYN, 1 mM α-ketoglutaric acid, 100 μM PLP, 0.005% Tween 20 and inhibitors at various concentrations in 150 mM AMP buffer (pH 9.5). Following the addition of 20 μL aliquots of 300 mM zinc acetate, fluorescence intensities of KYNA were measured using an ARVO X Multi Label Reader (PerkinElmer, USA).
# as §1
# human KAT4 = target: T3, human KAT4 (Homo sapiens, UniProt P00505); assay: Human KAT4 enzyme inhibition, HPLC analysis of KYNA; type: biochemical; conditions: recombinant human KAT4, 1 mM L-KYN, Tris buffer pH 7.5, HPLC
# T3 construct: made in house; host or cells: insect Sf9 cells (baculovirus)
# T3 sequence (P00505 30-430): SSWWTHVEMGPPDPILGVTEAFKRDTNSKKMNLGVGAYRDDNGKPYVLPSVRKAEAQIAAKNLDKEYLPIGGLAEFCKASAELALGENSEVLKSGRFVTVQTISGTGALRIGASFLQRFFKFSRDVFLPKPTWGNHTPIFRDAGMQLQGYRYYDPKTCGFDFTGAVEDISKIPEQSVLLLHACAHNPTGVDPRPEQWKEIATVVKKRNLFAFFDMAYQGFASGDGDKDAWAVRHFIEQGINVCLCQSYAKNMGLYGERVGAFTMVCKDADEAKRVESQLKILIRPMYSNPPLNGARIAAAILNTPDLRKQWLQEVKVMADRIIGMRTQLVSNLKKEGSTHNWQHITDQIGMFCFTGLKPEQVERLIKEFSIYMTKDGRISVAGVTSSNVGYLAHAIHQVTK
# Protocol: (§3) KAT3 and KAT4 enzyme activities were measured using high performance liquid chromatography (HPLC) analyses of reaction products. Briefly, KAT3 reaction mixtures (50 μL) contained 10 ng/μL recombinant human KAT3, 1 mM L-KYN, 1 mM sodium pyruvate, 100 μM PLP, 0.005% Tween 20 and inhibitors at various concentrations in 150 mM AMP buffer (pH 9.5). KAT4 reaction mixtures (50 μL) contained recombinant human KAT4, 1 mM L-KYN, 1 mM α-ketoglutaric acid, 100 μM PLP, 0.005% Tween 20 and inhibitors at various concentrations in 100 mM Tris buffer (pH 7.5). Reaction mixtures were incubated for 1 h at 37 °C and reactions were then stopped by adding 3% perchloric acid at a ratio of 1:1. KYNA contents of reaction mixtures were then determined using HPLC (Shimadzu, Kyoto, Japan) following isocratic elution from a reverse-phase column (TSKgel ODS-100V, 3 μm, 4.6 mm [ID] × 150 mm [L]; Tosoh, Tokyo, Japan) using a mobile phase containing 10 mM sodium acetate with 2% acetonitrile (pH adjusted to 4.5) at flow rate of 0.8 mL/min. KYNA was detected using a fluorescence detector (RF-20Axs) at an excitation wavelength of 344 nm and an emission wavelength of 380 nm.
# as §1, with “Double reciprocal plots were used to determine types of inhibition.” left out, “The Ki value of PF-04859989 was calculated using the global fit formula as follows: Vmaxinh=Vmax/(1+[I]/Ki)andKmobs=Vmaxinh×[S]/(Km+[S]), where Vmaxinh = maximum enzyme velocity for the concentration of inhibitor.” left out, “All statistical analyses were performed using GraphPad Prism v6.07.” left out
# mouse KAT2 = target: T4, mouse KAT2 (Mus musculus, UniProt Q9WVM8); assay: Mouse KAT2 enzyme inhibition, microplate fluorescence assay of KYNA; type: biochemical; conditions: recombinant mouse KAT2, 1 mM L-KYN, AMP buffer pH 9.5; mean ± SEM
# T4 construct: made in house; host or cells: insect Sf9 cells (baculovirus)
# T4 sequence (Q9WVM8 30-425): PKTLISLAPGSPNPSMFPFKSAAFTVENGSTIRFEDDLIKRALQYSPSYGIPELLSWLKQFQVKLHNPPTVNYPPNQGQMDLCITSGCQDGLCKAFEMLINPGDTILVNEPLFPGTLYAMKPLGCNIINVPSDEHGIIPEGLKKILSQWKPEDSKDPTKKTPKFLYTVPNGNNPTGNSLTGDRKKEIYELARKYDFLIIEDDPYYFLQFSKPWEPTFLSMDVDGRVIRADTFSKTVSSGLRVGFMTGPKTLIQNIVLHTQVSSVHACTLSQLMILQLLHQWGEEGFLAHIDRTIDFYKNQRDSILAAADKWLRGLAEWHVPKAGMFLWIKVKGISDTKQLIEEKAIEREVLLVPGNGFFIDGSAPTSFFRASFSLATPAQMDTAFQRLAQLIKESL
# Protocol: as §2, §1
# human KAT2 [2] = target: T1, human KAT2; assay: Human KAT2 inhibition kinetics with varying KYN (Lineweaver-Burk, global fit), HPLC; type: biochemical; conditions: for Ki: global fit formula, mean ± SEM, read-out: Ki (inhibition constant); for type of inhibition: inhibitor close to its IC50, Lineweaver-Burk
# Protocol: as §1
# [3] = cited from earlier work
# human KAT3 = target: T5, human KAT3 (Homo sapiens, UniProt Q6YP21); assay: Human KAT3 enzyme inhibition, HPLC analysis of KYNA; type: biochemical; conditions: recombinant human KAT3, 1 mM L-KYN, AMP buffer pH 9.5, HPLC; mean ± SEM
# T5 construct: purchased OriGene Technologies, Inc
# T5 sequence (Q6YP21 whole entry): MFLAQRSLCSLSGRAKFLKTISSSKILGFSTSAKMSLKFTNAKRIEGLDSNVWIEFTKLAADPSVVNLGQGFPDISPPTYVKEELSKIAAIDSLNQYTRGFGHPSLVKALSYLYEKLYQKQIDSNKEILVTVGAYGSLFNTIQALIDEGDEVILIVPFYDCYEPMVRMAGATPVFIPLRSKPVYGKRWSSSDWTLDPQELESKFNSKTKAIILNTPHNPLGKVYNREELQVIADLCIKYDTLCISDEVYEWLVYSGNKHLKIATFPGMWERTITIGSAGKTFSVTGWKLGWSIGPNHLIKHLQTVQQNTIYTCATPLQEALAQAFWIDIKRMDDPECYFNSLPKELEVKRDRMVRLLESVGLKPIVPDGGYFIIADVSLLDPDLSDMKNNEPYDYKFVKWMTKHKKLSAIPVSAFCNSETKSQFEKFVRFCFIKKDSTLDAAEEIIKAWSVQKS
# Protocol: as §3, with “nm. […]” for “nm.”
# human KAT2 [4] = target: T1, human KAT2; set-up: method as in PMID 18537204, PMID 27367665; conditions: read-out: reported IC50; cited from earlier work
# [5] = human KAT2 at physiological conditions (pH 7.4)
# [6] = recombinant human KAT2, 1 mM L-KYN, AMP buffer pH 9.5, mean ± SEM, three experiments
IC50 (human KAT2 [1]; [5]) [µM],IC50 (human KAT2 [1]; [6]) [µM],IC50 (human KAT1) [µM],IC50 (human KAT4) [µM],IC50 (mouse KAT2) [µM],Ki (human KAT2 [2]) [µM],type of inhibition (human KAT2 [2]),IC50 (human KAT3) [µM],Compound,passage through the BBB [3],IC50 (human KAT2 [4]) [µM],"IC50 (human KAT2 [1]; KAT2, as determined in our assays) [µM]"
3.34 ± 0.25,3.9 ± 0.37,> 500,> 500,19.8 ± 0.34,4.11 ± 0.37,competitive inhibitors of KYN,> 500,"CC1(C)[C@@H](OC(=O)CCC(=O)O)CC[C@]2(C)[C@H]3C(=O)C=C4[C@@H]5C[C@@](C)(C(=O)O)CC[C@]5(C)CC[C@@]4(C)[C@]3(C)CC[C@@H]12 [CBX, carbenoxolone]",failed to pass through the BBB,,
9.87 ± 0.32,6.96 ± 0.37,> 500,> 500,56.8 ± 1.45,6.92 ± 0.6,competitive inhibitors of KYN,,"CC1(C)[C@@H](O)CC[C@]2(C)[C@H]3C(=O)C=C4[C@@H]5C[C@@](C)(C(=O)O)CC[C@]5(C)CC[C@@]4(C)[C@]3(C)CC[C@@H]12 [GA, glycyrrhetinic acid]",,,
7.93 ± 0.17,4.51 ± 0.2,> 500,> 500,86.2 ± 1.94,10.4 ± 1.62,competitive inhibitors of KYN,> 500,"CC1(C)[C@@H](O[C@H]2O[C@H](C(=O)O)[C@@H](O)[C@H](O)[C@H]2O[C@@H]2O[C@H](C(=O)O)[C@@H](O)[C@H](O)[C@H]2O)CC[C@]2(C)[C@H]3C(=O)C=C4[C@@H]5C[C@@](C)(C(=O)O)CC[C@]5(C)CC[C@@]4(C)[C@]3(C)CC[C@@H]12 [GL, glycyrrhizic acid]",,,
,,,,,,,,O=C(O)C(Cc1ccccc1)N1C(=O)c2cc(Cl)c(Cl)cc2C1=O (centres unmarked) [NS-1502],,315,
,,,,,,,,(S)-4-(ethylsulfonyl)benzoylalanine [S-ESBA],,~1000,

Compound,IC50 (human KAT2 [1]; [5]) [µM],IC50 (human KAT2 [1]; [6]) [µM],IC50 (human KAT1) [µM],IC50 (human KAT4) [µM],IC50 (mouse KAT2) [µM],Ki (human KAT2 [2]) [µM],type of inhibition (human KAT2 [2]),IC50 (human KAT3) [µM],passage through the BBB [3],IC50 (human KAT2 [4]) [µM],"IC50 (human KAT2 [1]; KAT2, as determined in our assays) [µM]"
N[C@H]1Cc2ccccc2N(O)C1=O [PF-04859989],,,,,,0.22 ± 0.01,maximum reaction rates (Vmax) varied but the Michaelis–Menten constant (Km) did not change,,,,0.3
